Source: patent US20200392084A1 (priority 2017, published 2020)
≈ marks a conversion by molar mass, not a printed value. Read-outs that look alike come from different tables or passages of the source.

Columns and labels:
[1] = cited from earlier work
[2] = Solvent solubility screen; format: physicochemical; conditions: thermodynamic from solid
[3] = pKa determination (UV-metric); format: physicochemical; conditions: 0.15 M KCl
[4] = logP determination (pH-metric); format: physicochemical; conditions: 24.9-25.0 °C, 0.15M KCl

NCCCC[C@H](N)C(=O)O.O=C(O)c1cc(/N=N/c2ccc(S(=O)(=O)Nc3ccccn3)cc2)ccc1O [L-Lysine Salt, sulfasalazine L-lysine (1:1) salt]
Post-agitation pH (pH 1): 1.91
Pre-agitation pH (pH 1): 0.76
Post-agitation pH (pH 4.5): 5.63
Pre-agitation pH (pH 4.5): 4.70
Post-agitation pH (pH 6.8): 7.17
Pre-agitation pH (pH 6.8): 6.99

Nc1ccc(S(=O)(=O)Nc2ccccn2)cc1 [Sulfapyridine, sulfapyridine]
allergic reactions ([1]; of recipients): 3-8%

O=C(O)c1cc(/N=N/c2ccc(S(=O)(=O)Nc3ccccn3)cc2)ccc1O [Sulfasalazine]
solubility ([2]; 1,4-dioxane, 40 °C, organic solvent or mixture, 1,4-Dixoane, read-out: Approx. Solubility): < 5000 µg/mL
solubility ([2]; 1-butanol, 40 °C, organic solvent or mixture, read-out: Approx. Solubility): < 5000 µg/mL
solubility ([2]; 1-propanol, 40 °C, organic solvent or mixture, read-out: Approx. Solubility): < 5000 µg/mL
solubility ([2]; 2-propanol, 40 °C, organic solvent or mixture, read-out: Approx. Solubility): < 5000 µg/mL
solubility ([2]; 2-propanol/water (50:50), 40 °C, aqueous with cosolvent or surfactant or cyclodextrin, read-out: Approx. Solubility): < 5000 µg/mL
solubility ([2]; 40 °C, organic solvent or mixture, all solvents of the 24-solvent screen except DMF and THF, read-out: solubility values): < 5000 µg/mL
solubility ([2]; acetone, 40 °C, organic solvent or mixture, read-out: Approx. Solubility): < 5000 µg/mL
solubility ([2]; acetone/water (50:50), 40 °C, aqueous with cosolvent or surfactant or cyclodextrin, read-out: Approx. Solubility): < 5000 µg/mL
solubility ([2]; acetonitrile, 40 °C, organic solvent or mixture, read-out: Approx. Solubility): < 5000 µg/mL
solubility ([2]; acetonitrile/water (50:50), 40 °C, aqueous with cosolvent or surfactant or cyclodextrin, read-out: Approx. Solubility): < 5000 µg/mL
solubility ([2]; dichloromethane, 40 °C, organic solvent or mixture, read-out: Approx. Solubility): < 5000 µg/mL
solubility ([2]; dimethylformamide, organic solvent or mixture, read-out: Approx. Solubility): > 100000 µg/mL
solubility ([2]; ethanol, 40 °C, organic solvent or mixture, read-out: Approx. Solubility): < 5000 µg/mL
solubility ([2]; ethyl acetate, 40 °C, organic solvent or mixture, read-out: Approx. Solubility): < 5000 µg/mL
solubility ([2]; ethyl formate, 40 °C, organic solvent or mixture, read-out: Approx. Solubility): < 5000 µg/mL
solubility ([2]; heptane, 40 °C, organic solvent or mixture, Hepatane, read-out: Approx. Solubility): < 5000 µg/mL
solubility ([2]; isobutyl acetate, 40 °C, organic solvent or mixture, read-out: Approx. Solubility): < 5000 µg/mL
solubility ([2]; isopropyl acetate, 40 °C, organic solvent or mixture, read-out: Approx. Solubility): < 5000 µg/mL
solubility ([2]; methanol, 40 °C, organic solvent or mixture, read-out: Approx. Solubility): < 5000 µg/mL
solubility ([2]; methanol/water (50:50), 40 °C, aqueous with cosolvent or surfactant or cyclodextrin, read-out: Approx. Solubility): < 5000 µg/mL
solubility ([2]; methyl ethyl ketone, 40 °C, organic solvent or mixture, Methylethyl Ketone, read-out: Approx. Solubility): < 5000 µg/mL
solubility ([2]; nitromethane, 40 °C, organic solvent or mixture, read-out: Approx. Solubility): < 5000 µg/mL
solubility ([2]; tetrahydrofuran, organic solvent or mixture, read-out: Approx. Solubility): 10000 µg/mL (≈ 25.1 mM)
solubility ([2]; toluene, 40 °C, organic solvent or mixture, read-out: Approx. Solubility): < 5000 µg/mL
solubility ([2]; water, 40 °C, water, read-out: Approx. Solubility): < 5000 µg/mL
pKa ([3]; Type Acid (first acidic group), 25.0 °C): 2.29
pKa ([3]; Type Acid (second acidic group), 25.0-25.1 °C): 11
pKa ([3]; Type Base (pyridine), 25.0-25.1 °C): ~8.05
LogP ([4]; Cationic species): 3.73 ± 0.01
LogP ([4]; Zwitterionic species): 0.02 ± 0.03
Thermodynamic solubility, Concentration (pH 1): Less than the limit
Thermodynamic solubility, Concentration (pH 4.5): Less than the limit
Thermodynamic solubility, Concentration (pH 6.8): Less than the limit
Significant side effects occur in ([1]; of people): about 25%
solubility (physchem; acetone, organic solvent or mixture): 1100 µg/mL (≈ 2.76 mM)
solubility (physchem; acetonitrile, organic solvent or mixture): 300 µg/mL (≈ 0.753 mM)
solubility (physchem; ethanol, organic solvent or mixture): 500 µg/mL (≈ 1.26 mM)
solubility (physchem; ethyl acetate, organic solvent or mixture): 400 µg/mL (≈ 1 mM)
solubility (physchem; isopropyl alcohol, organic solvent or mixture): 500 µg/mL (≈ 1.26 mM)
solubility (physchem; methanol, organic solvent or mixture): 900 µg/mL (≈ 2.26 mM)
solubility (physchem; methyl ethyl ketone, organic solvent or mixture): 900 µg/mL (≈ 2.26 mM)
solubility (physchem; methyl tert-butyl ether, organic solvent or mixture): 300 µg/mL (≈ 0.753 mM)
solubility (physchem; water): 400 µg/mL (≈ 1 mM)
